Results reported in US20010025018A1, “Antimicrobial activity of laccases” (priority 1997, published 2001).

What was measured:
[1] = test system: Pseudomonas aeruginosa (ATCC10145); experiment: Bactericidal activity of laccase/enhancer systems, Malthus conductance enumeration of surviving cells; type: cell-based; conditions: for Bactericidal activity (log(cfu/ml)=the logarithm to the number of killed cells): enhancer 0.1 mM with rPpL or rMtL 3 mg/L, 20 min, approx. 10^4 cfu/ml
Procedure: (§1) Bactericidal activity was evaluated in 0.05 M MES-buffer (2-[N-morpholino]ethanesulfonic acid) (pH 6), which were flushed with air for 5 min before filter sterilisation. The bactericidal activity was determined against Pseudomonas aeruginosa (ATCC10145) and Staphylococcus epidermidis (DSM20042). Cells were grown in Tryptone Soya Broth (Oxoid CM129) at 30° C. for 24 h and diluted in the MES-buffer to a final cell concentration of approximately 10^4 cfu/ml. The cell suspensions were mixed with laccase (3 mg/L) and enhancer (0.1 mM) for 20 min at 40° C. The bactericidal activity was determined by incubation in Malthus. Detection times measured by the Malthus instrument were converted to cfu/ml by a calibration curve. Either direct or indirect Malthus measurements were used when enumerating total survival cells (Malthus Flexi M2060, Malthus Instrument Limited). By the direct measurements, the cell metabolism was determined by conductance measurements in the growth substrate. By the indirect measurements, 3 ml of growth medium was transferred to the outer chamber of the indirect Malthus cells, and 0.5 ml of sterile KOH (0.1 M) was transferred to the inner chamber. The cell suspensions were after enzyme treatment transferred to the outer chamber of the Malthus cell. As cells are growing in the outer chamber they produce CO2 which will dissolve in the KOH in the inner chamber and thereby change the conductance of the KOH. The amount of CO2 formed by the respiring cells surviving the enzyme treatment was used for estimating the number of viable cells. When the conductance change is measurable by the Malthus, a detection time (dt) will be recorded. The dt-s were converted to colony counts by use of a calibration curve relating cfu/ml to dt (Johansen et al. 1995. Journal of Applied Bacteriology 78:297-303, Johansen et al. 1997, Applied and Environmental Microbiology 63:3724-3728).
Antimicrobial activity (i.e. bactericidal activity) of Myceliophthera laccase (rMtL) and methylsyringate (MeS) was determined using a 32 factorial design at pH 6 at 40° C. in MES-buffer as described in example 1, however, a higher cell concentration was used (10^7-10^8 cfu/ml). Tested rMtL levels was 0-2,5-5 mg/L and MeS levels was 0-5-10 mM.
Antimicrobial activity (i.e. bactericidal activity) of Myceliophthera laccase (rMtL) and Polyporus laccase (rPpL) was determined against Staphylococcus epidermidis at pH 6 in MES-buffer as described in example 1, the laccases was used in the concentration of 3 mg/L. Acetosyringon, methylsyringate, ethylsyringate, butylsyringate and laurylsyringate were evaluated as electron-donors in the concentration of 0.2 mM.
Antimicrobial activity of laccases with two enhancers was determined against Pseudomonas aeruginosa (ATCC 10145) and Staphylococcus epidermidis (DSM 20042) at pH 6 as described in example 1. Methylsyringate and acetosyringon was used as enhancers and the laccase was rPpL (1 mg/L) and the antimicrobial activity was determined by use of a 32 factorial experimental design.

[2] = test system: Staphylococcus epidermidis (DSM20042); experiment: as above; type: cell-based; conditions: for Bactericidal activity (log(cfu/ml)=the logarithm to the number of killed cells): enhancer 0.1 mM with rPpL or rMtL 3 mg/L, 20 min, approx. 10^4 cfu/ml; for Bactericidal activity (log(cfu/ml)=the logarithm to the number of killed cells) / bactericidal activity when combined with laccase / bactericidal activity without laccase / bactericidal activity when combined with Polyporus laccase: pH 6, 40° C.; for bactericidal activity when combined with laccase: laccase (rMtL or rPpL) 3 mg/L; for bactericidal activity when combined with laccase / bactericidal activity without laccase / bactericidal activity when combined with Polyporus laccase: 20 minutes; for bactericidal activity without laccase: no laccase; for bactericidal activity when combined with Polyporus laccase: rPpL 3 mg/L
Procedure: as §1, with “63:3724-3728). […]” for “63:3724-3728).”

| SMILES | Bactericidal activity (log(cfu/ml)=the logarithm to the number of killed cells) ([1]; pH 6, 40° C.) | Bactericidal activity (log(cfu/ml)=the logarithm to the number of killed cells) [2] | bactericidal activity when combined with Polyporus laccase ([2]; enhancer 0.2 mM) | further results |
| --- | --- | --- | --- | --- |
| O=C(O)CCN1c2ccccc2Sc2ccccc21 [PPT, reference compound] | None of the other enhancers resulted in bactericidal activity | None of the other enhancers resulted in bactericidal activity | – | – |
| COc1cc(C(C)=O)cc(OC)c1O [acetosyringon] | – | – | 100% | bactericidal activity, comparison of the syringate-compounds as enhancers ([1]; different syringate-compounds with laccase): most bactericidal enhancer; cell reduction ([1]; with rPpL (1 mg/L), pH 6, 40° C.): approximately 1.5 log units; bactericidal activity when combined with laccase ([2]; enhancer 0.2 mM): significantly increased; bactericidal activity without laccase ([2]; enhancer 0.2 mM): did also show bactericidal activity; bactericidal activity with Myceliophthera laccase ([2]; enhancer 0.2 mM, rMtL 3 mg/L, pH 6, compared to Polyporus laccase and to the other syringate compounds): decreased |
| CCCCOC(=O)c1cc(OC)c(O)c(OC)c1 [butylsyringate] | – | – | 100% | – |
| O=C(/C=C/c1ccc(O)c(O)c1)O[C@@H]1C[C@](O)(C(=O)O)C[C@@H](O)[C@H]1O [chlorogenic acid, reference compound] | None of the other enhancers resulted in bactericidal activity | None of the other enhancers resulted in bactericidal activity | – | – |
| O=C(O)C=Cc1ccccc1 [cinnamic acid, reference compound] | None of the other enhancers resulted in bactericidal activity | None of the other enhancers resulted in bactericidal activity | – | – |
| CCOC(=O)c1cc(OC)c(O)c(OC)c1 [ethylsyringate] | – | – | 100% | – |
| CCCCCCCCCCCCOC(=O)c1cc(OC)c(O)c(OC)c1 [laurylsyringate] | – | – | – | bactericidal activity when combined with laccase ([2]; enhancer 0.2 mM): significantly increased; bactericidal activity without laccase ([2]; enhancer 0.2 mM): did also show bactericidal activity |
| COc1cc(C=O)cc(OC)c1O [syringaldehyde] | None of the other enhancers resulted in bactericidal activity | None of the other enhancers resulted in bactericidal activity | – | – |
